US9988403B2, “Compositions and methods for treating cancer with aberrant lipogenic signaling” (Thomas Jefferson University, priority 2012, dated 2018)

Tested on: Drosophila
Assay: Drosophila development, viability and life span on compound food
Assay type: in vivo

CC1(C)OB(c2ccc(/C=C/c3ccc(O)cc3)cc2)OC1(C)C [BF102]
Drosophila development and viability (200 μM in food): do not affect | life span of adult flies (adult flies fed food mixed with compound, data not shown): do not have any obvious effect
